Assay results taken from the NIST ThermoML archive (doi:10.1016/j.jct.2016.08.002).

Legend:
[1] = for vapor or sublimation pressure: Transpiration method; for Normal melting temperature: DTA
[2] = Molar enthalpy of transition or fusion; details: Crystal; DSC

NC(=O)c1ccccn1 [2-pyridinecarboxamide]
[1]
Details | vapor or sublimation pressure [kPa]
343 K, Crystal | 0.0079
348 K, Crystal | 0.0125
353.1 K, Crystal | 0.0192
353.2 K, Crystal | 0.0194
358.2 K, Crystal | 0.0302
363.3 K, Crystal | 0.0459
368.3 K, Crystal | 0.0687
373.3 K, Crystal | 0.1028
385.4 K, Liquid | 0.2394
390.4 K, Liquid | 0.3199
395.5 K, Liquid | 0.416
400.6 K, Liquid | 0.5427
405.6 K, Liquid | 0.7049
410.7 K, Liquid | 0.9324
415.8 K, Liquid | 1.202

Details | Normal melting temperature [°C]
[1], Crystal | 106.4

Details | Molar enthalpy of transition or fusion [kcal/mol]
[2] | 4.59

NC(=O)c1ccncc1 [4-pyridinecarboxamide]
[1], Crystal
Details | vapor or sublimation pressure [kPa]
358.2 K | 0.00043
363.3 K | 0.00072
368.4 K | 0.00117
373.4 K | 0.0019
373.5 K | 0.00191
378.5 K | 0.00296
383.7 K | 0.00472
388.7 K | 0.00724
393.8 K | 0.01115
398.8 K | 0.01672
404 K | 0.02482
409 K | 0.03719

Details | Normal melting temperature [°C]
[1], Crystal | 155.2

Details | Molar enthalpy of transition or fusion [kcal/mol]
[2] | 5.52

NC(=O)c1cccnc1 [3-pyridinecarboxamide]
[1], Crystal
Details | vapor or sublimation pressure [kPa]
353.2 K | 0.00036
358.3 K | 0.0006
363.4 K | 0.00104
363.5 K | 0.00105
370.6 K | 0.00207
378.6 K | 0.00436
383.8 K | 0.0069
388.8 K | 0.01096
394.9 K | 0.01844
398.9 K | 0.02467

Details | Normal melting temperature [°C]
[1], Crystal | 130.1

Details | Molar enthalpy of transition or fusion [kcal/mol]
[2] | 5.71
